In PubChem BioAssay AID248 (DTP/NCI, 2004):
Several values for one entry are separate records, joined by “and”; a condition that tells them apart may be missing. Equal entries are not always repeated. Inconclusive results and toxic doses are left out.

System: L1210 leukemia ip in BDF1 mice, survival T/C
Assay: NCI In Vivo Anticancer Drug Screen. Data for tumor model L1210 Leukemia (intraperitoneal) in B6D2F1 (BDF1) mice
Conditions: endpoint: mean survival time, higher = longer survival
In short: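 Value reflects the ratio of survival in compound-treated mice to survival in vehicle-treated controls, with both groups carrying the same transplanted tumor.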

[1] = dose: 100.0 mg/kg/injection, schedule: Q01DX009 (ip), vehicle: Klucel (hydroxypropylcellulose) (HPC)
[2] = dose: 200.0 mg/kg/injection, schedule: Q01DX009 (ip), vehicle: Klucel (hydroxypropylcellulose) (HPC)
[3] = dose: 100.0 mg/kg/injection, schedule: Q01DX009 (ip), vehicle: saline with Tween-80
[4] = dose: 100.0 mg/kg/injection, schedule: Q04DX003 (ip), vehicle: saline with Tween-80
[5] = dose: 200.0 mg/kg/injection, schedule: Q01DX009 (ip), vehicle: saline with Tween-80
[6] = dose: 200.0 mg/kg/injection, schedule: Q04DX003 (ip), vehicle: saline with Tween-80
[7] = dose: 50.0 mg/kg/injection, schedule: Q01DX009 (ip), vehicle: saline with Tween-80

For `C=CCN(CC=C)C(=O)CCN1CC1`, the T/C (dose: 1.25 mg/kg/injection, schedule: Q01DX Z (ip), vehicle: saline) was 96 % of control, the T/C (dose: 2.5 mg/kg/injection, schedule: Q01DX Z (ip), vehicle: saline) was 96 % of control and the T/C (dose: 5.0 mg/kg/injection, schedule: Q01DX Z (ip), vehicle: saline) was 100 % of control. For the same compound, the T/C (dose: 10.0 mg/kg/injection, schedule: Q01DX Z (ip), vehicle: saline) was 98 % of control and 111 % of control, the T/C (dose: 10.0 mg/kg/injection, schedule: Q01DX Z (oral), vehicle: saline) was 108 % of control and the T/C (dose: 20.0 mg/kg/injection, schedule: Q01DX001 (ip), vehicle: saline) was 103 % of control. The T/C (dose: 20.0 mg/kg/injection, schedule: Q01DX Z (ip), vehicle: saline) was 96 % of control, the T/C (dose: 20.0 mg/kg/injection, schedule: Q01DX Z (oral), vehicle: saline) was 117 % of control and the T/C (dose: 40.0 mg/kg/injection, schedule: Q01DX001 (ip), vehicle: saline) was 115 % of control. The T/C (dose: 40.0 mg/kg/injection, schedule: Q01DX Z (oral), vehicle: saline) was 86 % of control.
With `Nc1nc(SN=Nc2ccc([As](=O)(O)O)cc2)c2[nH]cnc2n1` the T/C (dose: 0.5 mg/kg/injection, schedule: Q01DX Z (ip), vehicle: other) was 110 % of control, the T/C (dose: 0.7 mg/kg/injection, schedule: Q01DX Z (ip), vehicle: other) was 114 % of control and the T/C (dose: 1.25 mg/kg/injection, schedule: Q01DX015 (ip), vehicle: carboxymethylcellulose (CMC)) was 106 % of control. For the same compound, the T/C (dose: 1.3 mg/kg/injection, schedule: Q01DX Z (ip), vehicle: other) was 107 % of control, the T/C (dose: 2.5 mg/kg/injection, schedule: Q01DX015 (ip), vehicle: carboxymethylcellulose (CMC)) was 115 % of control and the T/C (dose: 10.0 mg/kg/injection, schedule: Q01DX015 (ip), vehicle: carboxymethylcellulose (CMC)) was 159 % of control. The T/C (dose: 11.0 mg/kg/injection, schedule: Q01DX Z (ip), vehicle: other) was 151 % of control and 154 % of control, the T/C (dose: 25.0 mg/kg/injection, schedule: Q## X001 (ip), vehicle: carboxymethylcellulose (CMC)) was 113 % of control and the T/C (dose: 50.0 mg/kg/injection, schedule: Q## X001 (ip), vehicle: carboxymethylcellulose (CMC)) was 123 % of control. For the same compound, the T/C (dose: 56.0 mg/kg/injection, schedule: Q01DX Z (ip), vehicle: other) was 106 % of control.
With `COc1ccc2c(=O)c3ccccc3oc2c1` the T/C (dose: 100.0 mg/kg/injection, schedule: Q04DX003 (ip), vehicle: saline) was 101 % of control, the T/C (dose: 200.0 mg/kg/injection, schedule: Q04DX003 (ip), vehicle: saline) was 101 % of control and the T/C (dose: 400.0 mg/kg/injection, schedule: Q04DX003 (ip), vehicle: saline) was 103 % of control.
For `Cc1ccccc1NC(=O)Nc1ccc(Nc2ccccc2)cc1`, the T/C [1] was 97 % of control, the T/C [2] was 91 % of control and the T/C (dose: 400.0 mg/kg/injection, schedule: Q01DX009 (ip), vehicle: Klucel (hydroxypropylcellulose) (HPC)) was 100 % of control.
In the case of `CC(C)CCC[C@@H](C)[C@H]1CC[C@H]2[C@@H]3CC=C4C[C@@H](OC(=O)Cc5ccc(N(CCCl)CCCl)cc5)CC[C@]4(C)[C@H]3CC[C@]12C`, the T/C (dose: 50.0 mg/kg/injection, schedule: Q01DX001 (sc), vehicle: steriod suspending solution) is reported as 110 % of control, the T/C (dose: 50.0 mg/kg/injection, schedule: Q01DX009 (oral), vehicle: saline) is reported as 98 % of control and the T/C (dose: 100.0 mg/kg/injection, schedule: Q01DX001 (sc), vehicle: steriod suspending solution) is reported as 96 % of control. For the same compound, the T/C (dose: 100.0 mg/kg/injection, schedule: Q01DX009 (oral), vehicle: other) was 121 % of control, the T/C (dose: 100.0 mg/kg/injection, schedule: Q01DX009 (oral), vehicle: saline) was 98 % of control and the T/C (dose: 100.0 mg/kg/injection, schedule: Q01DX009 (sc), vehicle: other) was 109 % of control. The T/C (dose: 200.0 mg/kg/injection, schedule: Q01DX001 (sc), vehicle: steriod suspending solution) was 100 % of control, the T/C (dose: 200.0 mg/kg/injection, schedule: Q01DX009 (oral), vehicle: saline) was 102 % of control and the T/C (dose: 200.0 mg/kg/injection, schedule: Q01DX009 (sc), vehicle: other) was 111 % of control. The T/C (dose: 250.0 mg/kg/injection, schedule: Q01DX015 (ip), vehicle: steriod suspending solution) was 95 % of control, the T/C (dose: 400.0 mg/kg/injection, schedule: Q01DX001 (sc), vehicle: steriod suspending solution) was 115 % of control and the T/C (dose: 400.0 mg/kg/injection, schedule: Q01DX009 (oral), vehicle: other) was 116 % of control. The T/C (dose: 400.0 mg/kg/injection, schedule: Q01DX009 (oral), vehicle: saline) was 91 % of control, the T/C (dose: 400.0 mg/kg/injection, schedule: Q01DX009 (sc), vehicle: other) was 106 % of control and the T/C (dose: 400.0 mg/kg/injection, schedule: Q01DX015 (ip), vehicle: steriod suspending solution) was 111 % of control. For the same compound, the T/C (dose: 800.0 mg/kg/injection, schedule: Q01DX009 (oral), vehicle: other) was 98 % of control and the T/C (dose: 800.0 mg/kg/injection, schedule: Q01DX009 (oral), vehicle: saline) was 96 % of control.
`CCOc1ccc(OCC)c(NC(=O)Nc2cc([N+](=O)[O-])ccc2OC)c1` was tested, and the T/C (dose: 50.0 mg/kg/injection, schedule: Q01DX009 (ip), vehicle: Klucel (hydroxypropylcellulose) (HPC)) was 114 % of control, the T/C [1] was 93 % of control and the T/C [2] was 96 % of control.
For `CCOC(=O)C(C)(c1c(C)n(C)c2ccccc12)c1c(C)n(C)c2ccccc12`, the T/C (dose: 50.0 mg/kg/injection, schedule: Q01DX001 (ip), vehicle: other) was 91 % of control, the T/C (dose: 100.0 mg/kg/injection, schedule: Q01DX001 (ip), vehicle: other) was 91 % of control and the T/C (dose: 200.0 mg/kg/injection, schedule: Q01DX001 (ip), vehicle: other) was 91 % of control. For the same compound, the T/C (dose: 400.0 mg/kg/injection, schedule: Q01DX001 (ip), vehicle: other) was 91 % of control.
With `CCOC(=O)C1(C(=O)OCC)CCC2Nc3ccccc3C(=O)N21` (stereo not given) the T/C (dose: 50.0 mg/kg/injection, schedule: Q04DX003 (ip), vehicle: Klucel (hydroxypropylcellulose) (HPC)) was 99 % of control, the T/C (dose: 100.0 mg/kg/injection, schedule: Q04DX003 (ip), vehicle: Klucel (hydroxypropylcellulose) (HPC)) was 101 % of control and the T/C (dose: 200.0 mg/kg/injection, schedule: Q04DX003 (ip), vehicle: Klucel (hydroxypropylcellulose) (HPC)) was 87 % of control.
In the case of `Nc1cccc(CCCCc2ccc(Cl)cc2Cl)c1`, the T/C (dose: 100.0 mg/kg/injection, schedule: Q01DX001 (ip), vehicle: Klucel (hydroxypropylcellulose) (HPC)) is reported as 97 % of control, the T/C (dose: 200.0 mg/kg/injection, schedule: Q01DX001 (ip), vehicle: Klucel (hydroxypropylcellulose) (HPC)) is reported as 96 % of control and the T/C (dose: 400.0 mg/kg/injection, schedule: Q01DX001 (ip), vehicle: Klucel (hydroxypropylcellulose) (HPC)) is reported as 102 % of control.
For `O=c1[nH]c(-c2ccccc2)nc(CN2CCCCC2)c1O`, the T/C (dose: 50.0 mg/kg/injection, schedule: Q01DX001 (ip), vehicle: carboxymethylcellulose (CMC)) was 101 % of control, the T/C (dose: 100.0 mg/kg/injection, schedule: Q01DX001 (ip), vehicle: carboxymethylcellulose (CMC)) was 101 % of control and the T/C (dose: 200.0 mg/kg/injection, schedule: Q01DX001 (ip), vehicle: carboxymethylcellulose (CMC)) was 98 % of control. The T/C (dose: 400.0 mg/kg/injection, schedule: Q01DX001 (ip), vehicle: carboxymethylcellulose (CMC)) was 95 % of control.
`COc1ccc(OC(=O)Nc2c(C)cccc2C)cc1` was tested, and the T/C [3] was 95 % of control, the T/C [4] was 98 % of control and the T/C [5] was 91 % of control. For the same compound, the T/C [6] was 105 % of control, the T/C (dose: 400.0 mg/kg/injection, schedule: Q01DX009 (ip), vehicle: saline with Tween-80) was 94 % of control and the T/C (dose: 400.0 mg/kg/injection, schedule: Q04DX003 (ip), vehicle: saline with Tween-80) was 100 % of control.
For `COc1ccc(C(=O)/C=C/c2ccc(OCc3ccccc3)c(OC)c2)cc1OC`, the T/C (dose: 100.0 mg/kg/injection, schedule: Q04DX003 (ip), vehicle: water) was 93 % of control, the T/C (dose: 200.0 mg/kg/injection, schedule: Q04DX003 (ip), vehicle: water) was 93 % of control and the T/C (dose: 400.0 mg/kg/injection, schedule: Q04DX003 (ip), vehicle: water) was 91 % of control.
For `Nc1ccc(S(=O)(=O)c2ccc(NCC(=O)O)cc2)cc1`, the T/C [7] was 105 % of control, the T/C [3] was 101 % of control and the T/C [4] was 89 % of control. For the same compound, the T/C [5] was 92 % of control and the T/C [6] was 92 % of control.
For `BrCC1CCCO1` (stereo not given), the T/C (dose: 25.0 mg/kg/injection, schedule: Q01DX009 (ip), vehicle: saline with Tween-80) was 106 % of control, the T/C (dose: 25.0 mg/kg/injection, schedule: Q04DX003 (ip), vehicle: saline with Tween-80) was 102 % of control and the T/C [7] was 90 % of control. The T/C (dose: 50.0 mg/kg/injection, schedule: Q04DX003 (ip), vehicle: saline with Tween-80) was 101 % of control, the T/C [3] was 89 % of control and the T/C [4] was 101 % of control.
